This is an account of results in EPA's ToxValDB 9.5 (doi:10.2903/j.efsa.2016.4498).

Structures are written as SMILES. ≈ marks a conversion by molar mass, not a printed value.

One series relates to Apis mellifera. As to conditions: acute, mortality.
For another series, the system named is Daphnia magna. The conditions noted are these: chronic/long-term; duration: 21 days; mortality.
Another series has as its system Elodea callitrichoides. The conditions noted are these: chronic/long-term; duration: 42 days.
Another series deals with Hypoaspis aculeifer. The conditions noted are these: chronic/long-term; mortality.
Another series deals with Oryctolagus sp. The conditions noted are these: chronic.
The subject of the next series is Pimephales promelas. As to conditions: mortality.
Another series deals with Rattus norvegicus. As to conditions: acute; oral; mortality.
A further series concerns Tagia sp. The conditions noted are these: chronic/long-term; growth.

Consider `CNC1=C(c2cccc(C(F)(F)F)c2)C(=O)C(c2ccccc2)O1` (configuration not stated) [Flurtamone], for which the LD50 in the series on Apis mellifera (dermal) was over 100 µg/piece; in the series with Apis mellifera (oral, unspecified), over 105 µg/piece; with Colinus virginianus (acute, oral, mortality), over 2530 mg/kg; in the series with Rattus norvegicus, over 5000 mg/kg. Moreover, the NOEC came to 7.3 mg/kg-day with Colinus virginianus (chronic); 0.071 mg/L in the series on Daphnia magna; 0.001 mg/L with Elodea callitrichoides; 89 mg/kg with Hypoaspis aculeifer; 0.188 mg/L with Pimephales promelas (chronic/long-term, duration: 35 days); 47.5 mg/kg with Tagia sp.. Moreover, the NOAEL in the series with Oryctolagus sp. is 20 mg/kg-day. The compound further displayed a median lethal concentration (LC50) with Pimephales promelas (acute, duration: 96 hours) of 6.64 µg/mL (≈ 19.9 µM).
